{"source": "ChEMBL document CHEMBL3352614", "about": "“MoGAT-2 Inhibitors May Provide Effective Treatment for Hypertriglyceridemia” (ACS Med Chem Lett, 2014)", "molecular_target": "2-acylglycerol O-acyltransferase 2 (Homo sapiens, UniProt Q3SYC2)", "sequence (Q3SYC2 whole entry)": "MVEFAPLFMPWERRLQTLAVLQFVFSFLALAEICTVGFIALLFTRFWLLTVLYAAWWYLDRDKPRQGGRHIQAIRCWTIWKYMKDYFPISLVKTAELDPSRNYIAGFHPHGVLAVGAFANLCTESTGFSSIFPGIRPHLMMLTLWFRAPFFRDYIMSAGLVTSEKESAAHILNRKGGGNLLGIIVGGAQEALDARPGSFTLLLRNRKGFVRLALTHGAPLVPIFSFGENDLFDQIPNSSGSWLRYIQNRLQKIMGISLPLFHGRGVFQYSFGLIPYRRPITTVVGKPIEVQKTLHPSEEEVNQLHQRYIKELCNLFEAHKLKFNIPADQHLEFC", "test": "Inhibition of human MoGAT-2 expressed in human Caco2 cells assessed as inhibition of 2-O-Hexadecylglycerol […] pretreated for 30 mins by LC-MS analysis", "format": "cell-based, Caco-2", "data": [{"smiles": "C[C@@H](NS(C)(=O)=O)c1ccc(CNC[C@@H]2CO[C@@H](c3ccccc3)CO2)cc1", "values": [{"measurement": "IC50", "value": 294, "unit": "nM"}]}]}
